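The compound was tested at five concentrations on cells cultured in 96-well plates, with a 48-hour exposure period. At the TGI there is no net growth.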
Key:
Experiment in all cases: DTP human tumour cell line panel, 48 h
PC-3 prostate = system: PC-3 prostate
RPMI-8226 leukemia = system: RPMI-8226 leukemia
A549 NSCLC = system: A549 NSCLC
SN12C renal = system: SN12C renal
RXF 393 renal = system: RXF 393 renal
T-47D breast = system: T-47D breast
UACC-257 melanoma = system: UACC-257 melanoma
NCI-H226 lung = system: NCI-H226 lung
HOP-62 NSCLC = system: HOP-62 NSCLC
COLO 205 colon = system: COLO 205 colon
TK-10 renal = system: TK-10 renal
MDA-MB-231 breast = system: MDA-MB-231 breast
NCI/ADR-RES ovarian = system: NCI/ADR-RES ovarian
SF-539 CNS = system: SF-539 CNS
DU-145 prostate = system: DU-145 prostate
MDA-MB-435 = system: MDA-MB-435
A498 renal = system: A498 renal
LOX IMVI melanoma = system: LOX IMVI melanoma
U251 CNS = system: U251 CNS
HCT-116 colon = system: HCT-116 colon
MCF7 breast = system: MCF7 breast
OVCAR-3 ovarian = system: OVCAR-3 ovarian
MDA-N = system: MDA-N
SF-268 CNS = system: SF-268 CNS
MOLT-4 leukemia = system: MOLT-4 leukemia
OVCAR-5 ovarian = system: OVCAR-5 ovarian
SK-MEL-28 melanoma = system: SK-MEL-28 melanoma
HS 578T breast = system: HS 578T breast
SNB-19 CNS = system: SNB-19 CNS
MALME-3M melanoma = system: MALME-3M melanoma
HOP-92 NSCLC = system: HOP-92 NSCLC
KM12 colon = system: KM12 colon
SW-620 colon = system: SW-620 colon
SNB-75 CNS = system: SNB-75 CNS
CAKI-1 renal = system: CAKI-1 renal
SF-295 CNS = system: SF-295 CNS
EKVX NSCLC = system: EKVX NSCLC
SK-OV-3 ovarian = system: SK-OV-3 ovarian
IGROV1 ovarian = system: IGROV1 ovarian
OVCAR-4 ovarian = system: OVCAR-4 ovarian
786-0 renal = system: 786-0 renal
SR leukemia = system: SR leukemia
NCI-H23 lung = system: NCI-H23 lung
K-562 leukemia = system: K-562 leukemia
HL-60(TB) leukemia = system: HL-60(TB) leukemia
HT29 colon = system: HT29 colon
NCI-H522 lung = system: NCI-H522 lung
UACC-62 melanoma = system: UACC-62 melanoma
CCRF-CEM leukemia = system: CCRF-CEM leukemia
UO-31 renal = system: UO-31 renal
HCT-15 colon = system: HCT-15 colon
BT-549 breast = system: BT-549 breast
M14 melanoma = system: M14 melanoma
OVCAR-8 ovarian = system: OVCAR-8 ovarian
NCI-H460 lung = system: NCI-H460 lung
ACHN renal = system: ACHN renal
SK-MEL-5 melanoma = system: SK-MEL-5 melanoma
SK-MEL-2 melanoma = system: SK-MEL-2 melanoma

Measured: TGI

O=C1CSC(c2ccccc2O)N1c1ccc(-c2ccc(-n3c(-c4ccccc4)nc4ccccc4c3=O)cc2)cc1 (centres undefined)
94.9 µM: PC-3 prostate
60.9 µM: 786-0 renal
71 µM: TK-10 renal
44.7 µM: NCI-H522 lung
69.1 µM: CAKI-1 renal
91.9 µM: RXF 393 renal
77.4 µM: LOX IMVI melanoma
77.8 µM: A549 NSCLC
52.3 µM: KM12 colon
28.7 µM: HT29 colon
55.7 µM: BT-549 breast
49.3 µM: MALME-3M melanoma
44.9 µM: COLO 205 colon
54.2 µM: SF-295 CNS
not listed: ACHN renal | SK-MEL-5 melanoma | SK-MEL-2 melanoma
> 100 µM: all other assays above

COc1ccc2c3c1O[C@H]1[C@@H](O)CC[C@@]4(O)[C@@H](C2)N(C)CC[C@]314
not listed: RXF 393 renal | SNB-75 CNS | NCI-H460 lung
> 100 µM: all other assays above

COC(=O)C1(NC(=O)C(CC(=O)OCc2ccccc2)NC(=O)OCc2ccccc2)CCCCCCC1 (centres undefined)
63.2 µM: UACC-62 melanoma
90.9 µM: NCI-H226 lung
67.7 µM: A498 renal
29.4 µM: SK-MEL-5 melanoma
51.9 µM: HL-60(TB) leukemia
39.2 µM: RPMI-8226 leukemia
82.7 µM: COLO 205 colon
94.2 µM: T-47D breast
not listed: UACC-257 melanoma | MALME-3M melanoma | CCRF-CEM leukemia | SK-MEL-2 melanoma
> 100 µM: all other assays above

From PubChem BioAssay (NCI)
